# Measured values taken from US20050152842A1, “Poly (L-glutamic acid) paramagnetic material complex and use as a biodegradable MRI contrast agent” (priority 2003, published 2005).
# Columns and labels:
# Cathepsin B = Cathepsin B (Homo sapiens, UniProt P07858)
# Method: PG-Hex-BzDTPA-Gd was dissolved in PBS buffer (pH 5) at a concentration of 5.3 mg/ml. Cathepsin B, which is able to degrade the complex, was added to the solution to a final concentration of 10 units/ml. The degradation was monitored at different time intervals using a gel permeation chromatography (GPC) system equipped with an TSK G3000PW column (TosoHaas), a Waters 515 HPLC pump, and a Viscotek E-Z^pro triple detector array. The system was eluted with PBS buffer containing 0.1% LiBr (pH 7.4) at a flow rate of 1 ml/min.
# [1] = MRI studies of vascular enhancement and intravascular retention in mice; format: in vivo; details: dose of 0.1 mmol/kg, intravenous
# Method: For MRI studies using complexes prepared as described in the earlier examples, mice were anesthetized with 1-2% isoflurane in a 1 L/min O2 flow and place prone within a custom sled. A custom catheter made from 2 Fr silicon tubing and a 27 gauge needle was inserted in the tail vein of the mouse. Gd-DTPA ([…]) or PG-Hex-DTPA-Gd (0.004 mmol Gd/ml, 0.02 mmol Gd/kg) was injected through the catheter and the catheter flushed with normal saline. Two-dimensional coronal section spin-echo images were obtained before and at 2 hours and 24 hours after contrast agent injection using a 2.5 cm quadrature birdcage coil on a 1.5 T Sigma LX MR scanner (GE Medical Systems, WI). Six 1.5 mm contiguous sections were obtained using a 6 cm field-of-view, a 256×192 acquisition matrix and 4 averages. Similar studies were performed with PEG/PG-Hex-DTPA-Gd.
# A fast spoiled gradient-echo sequence was used to obtain the data from 8 anatomic sections with 7.1 s temporal resolution. Other acquisition parameters were echo time: 1.4 ms, repetition time: 40 ms, flip angle: 35°, acquisition matrix size: 128×128. […] Such long intravascular retention times are useful for contrast-enhanced MR angiography, for assessment of microvascular volume, and for characterizing changes in permeability of highly “leaky” vasculature. Retention of the contrast in the tumor was also noted in the same time period (FIG. 6B).
# [2] = 1.5 Tesla in phosphate-buffered saline; from Unger et al. 1999; cited from earlier work
Compound,Time in which the polymer was almost completely degraded (Cathepsin B) [min],Degradation on incubation with Cathepsin B (in words) (Cathepsin B; pH 5),Vascular enhancement 2 hours after injection [1],Relaxivity R1 [2] [mM^−1Sec^−1]
poly(L-glutamic acid) [PG],100,rapidly degraded,,
O=C([O-])CN(CCN(CC(=O)[O-])CC(=O)O)CCN(CC(=O)[O-])CC(=O)O.[Gd+3] [DTPA-Gd],,,not detected,4.1
